Data as given in patent US20210290524A1, “TOPICAL TRPV1 ANTAGONISTS AND METHODS AND COMPOSITIONS THEREOF” (CHILDREN'S MEDICAL CENTER CORPORATION, priority 2016, published 2021).
Ends that are not written are not given here.

Legend:
TRPV1 [1] = target: T1, TRPV1 (Mus musculus, UniProt Q704Y3)
TRPV1 [2] = target: T2, TRPV1 (Homo sapiens, UniProt Q8NER1); details: applied topically; cited from earlier work
[3] = system: TrpV1 expressing afferents; experiment: in vivo calcium imaging of injury-activated trigeminal ganglion neurons, topical capsaicin; design: species or system mouse; details: topical 5 mM capsaicin after incision injury, 32 of 38 neurons
Excerpt: FIG. 9A is a micrograph of calcium imaging field in trigeminal ganglion of VGlut2^Cre; Rosa26^LSL-GCαMP6f mouse, with neurons active after injury highlighted. Scale bar is 100 μm. […] (The VGlut2^Cre; Rosa26^LSL-GCαMP6f mouse is generated by crossing a VGlut2-Cre mice with a […] mice, therefore the resulting double transgenic VGlut2^Cre; Rosa26^LSL-GCαMP6f mice express tD-Tomato (a red fluorescence protein) in all the sensory neurons but not in any other type of neuron. This allows for labeling and imaging of only sensory neurons in vivo.)
The inventors assessed effect of topical TRPV1 agonist capsaicin applied after acute injury and wound in a mouse model in vivo. […] Capsaicin, a TRPV1 agonist, was later applied to the same region to determine that an unexpected high number of neurons, […] of neurons activated by injury were also TRPV1-positive.

TRPM8 = TRPM8 (Mus musculus, UniProt Q8R4D5); details: 30 μM; Menthol 100 μM
TRPV4 = TRPV4 (Mus musculus, UniProt Q9EPK8); details: 30 μM; GSK 1016790A 1 μM
TRPA1 = TRPA1 (Mus musculus, UniProt Q8BLA8); details: 30 μM; AITC 50 μM
TRPV1 [4] = details: pH 5.6; 1 μM
[5] = system: TRPV1 pore turret domain mutants (G603-N626); details: deletion and substitution mutations
rTRPV1 = rTRPV1 (Rattus norvegicus, UniProt O35433)
Experimental: To identify if the antagonists were peptides, we purified saliva through a 30 kDa filter to eliminate large proteins and then used reverse-phase HPLC to fractionate the samples (FIG. 1B). […] The resultant 37 1 mL-fractions were dried, reconstituted in HBSS and screened on HEK cells transiently transfected with TRPV1 (FIG. 1C).

TRPV1 [6] = target: T1, TRPV1; details: 5 nmol/mouse with capsaicin 5 nmol/mouse, paw injection
Excerpt: Injection of capsaicin into a paw produces a short bout of biting and licking.

TRPV1 [7] = target: T1, TRPV1; details: Hot-plate test 52±0.1° C.
P2X3 = P2X3 (Mus musculus, UniProt Q3UR32); details: 30 μM; α,β-methylene-ATP 30 μM
TRPV1 [8] = target: T1, TRPV1; details: Von frey filaments
TRPV1 [9] = target: T1, TRPV1; experiment: whole cell patch clamp of capsaicin-induced currents in primary murine DRG neurons; format: cell-based; design: capsaicin-induced currents in primary murine DRG neurons using whole cell patch clamp; endogenous in cells; host or cells: primary murine dorsal root ganglion (DRG) neurons; details: for block of capsaicin-induced currents by opiorphin family peptides: DRG neurons
TRPV1 [10] = target: T2, TRPV1; details: HEK293 cells transiently expressing hTRPV1
TRPV1 [11] = target: T1, TRPV1; experiment: capsaicin-induced calcium flux in primary murine DRG neurons (plate-based/FLIPR); format: cell-based; design: capsaicin-induced currents in primary murine DRG neurons using whole cell patch clamp; endogenous in cells; host or cells: primary murine dorsal root ganglion (DRG) neurons; details: DRG neuron, read-out: inhibition of capsaicin-induced calcium flux
Excerpt: To test the possibility that saliva may inhibit the TRPV1 heat pain receptor^12-14 in nociceptors, we collected samples of whole saliva from four human donors and ran a screen on primary murine dorsal root ganglion (DRG) neurons.

rat TRPV1 = rat TRPV1 (Rattus norvegicus, UniProt O35433); details: 1 μM
Chain of rat TRPV1 (O35433 whole entry): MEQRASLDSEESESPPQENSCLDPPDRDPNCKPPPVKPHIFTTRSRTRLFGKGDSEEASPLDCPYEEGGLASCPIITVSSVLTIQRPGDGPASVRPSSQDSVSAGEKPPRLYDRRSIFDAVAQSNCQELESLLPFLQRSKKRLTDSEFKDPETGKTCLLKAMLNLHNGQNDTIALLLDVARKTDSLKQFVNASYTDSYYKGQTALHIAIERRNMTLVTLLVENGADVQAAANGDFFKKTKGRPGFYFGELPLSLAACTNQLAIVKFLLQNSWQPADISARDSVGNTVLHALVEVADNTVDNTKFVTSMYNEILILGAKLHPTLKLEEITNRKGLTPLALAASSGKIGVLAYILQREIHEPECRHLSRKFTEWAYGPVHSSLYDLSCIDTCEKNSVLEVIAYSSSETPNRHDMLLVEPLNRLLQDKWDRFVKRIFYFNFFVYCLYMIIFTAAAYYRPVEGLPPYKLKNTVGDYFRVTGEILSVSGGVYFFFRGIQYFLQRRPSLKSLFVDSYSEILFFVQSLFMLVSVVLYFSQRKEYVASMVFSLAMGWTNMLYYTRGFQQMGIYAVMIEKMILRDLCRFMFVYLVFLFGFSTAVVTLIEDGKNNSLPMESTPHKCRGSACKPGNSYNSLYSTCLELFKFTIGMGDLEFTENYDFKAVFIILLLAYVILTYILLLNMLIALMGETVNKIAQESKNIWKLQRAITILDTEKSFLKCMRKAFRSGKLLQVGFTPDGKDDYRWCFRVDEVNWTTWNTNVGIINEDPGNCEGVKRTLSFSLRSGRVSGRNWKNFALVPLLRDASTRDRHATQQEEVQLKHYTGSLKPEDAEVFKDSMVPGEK

T1 sequence (Q704Y3 whole entry): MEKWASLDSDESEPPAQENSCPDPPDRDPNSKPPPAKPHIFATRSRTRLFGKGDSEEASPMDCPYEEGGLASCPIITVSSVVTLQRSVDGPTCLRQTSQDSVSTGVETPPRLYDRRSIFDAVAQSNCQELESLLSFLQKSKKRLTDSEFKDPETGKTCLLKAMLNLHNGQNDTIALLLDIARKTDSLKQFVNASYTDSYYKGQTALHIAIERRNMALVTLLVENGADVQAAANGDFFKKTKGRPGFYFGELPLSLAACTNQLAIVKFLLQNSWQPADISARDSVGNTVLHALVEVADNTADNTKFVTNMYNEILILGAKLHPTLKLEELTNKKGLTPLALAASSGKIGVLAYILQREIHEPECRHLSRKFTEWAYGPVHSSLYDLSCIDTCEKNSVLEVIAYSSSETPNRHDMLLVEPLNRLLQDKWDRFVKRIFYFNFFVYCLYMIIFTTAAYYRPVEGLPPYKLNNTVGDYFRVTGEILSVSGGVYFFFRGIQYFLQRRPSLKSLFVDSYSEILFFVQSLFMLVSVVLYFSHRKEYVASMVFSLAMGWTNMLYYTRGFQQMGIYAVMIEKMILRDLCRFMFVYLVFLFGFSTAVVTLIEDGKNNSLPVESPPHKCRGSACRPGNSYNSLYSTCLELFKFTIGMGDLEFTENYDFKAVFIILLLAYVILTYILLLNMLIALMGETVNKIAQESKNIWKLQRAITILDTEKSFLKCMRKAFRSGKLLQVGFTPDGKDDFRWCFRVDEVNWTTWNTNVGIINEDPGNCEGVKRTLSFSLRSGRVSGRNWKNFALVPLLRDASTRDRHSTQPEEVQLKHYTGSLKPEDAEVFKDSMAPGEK
Chain of rTRPV1 (O35433 whole entry): as the sequence (O35433 whole entry) above
T2 sequence (Q8NER1 whole entry): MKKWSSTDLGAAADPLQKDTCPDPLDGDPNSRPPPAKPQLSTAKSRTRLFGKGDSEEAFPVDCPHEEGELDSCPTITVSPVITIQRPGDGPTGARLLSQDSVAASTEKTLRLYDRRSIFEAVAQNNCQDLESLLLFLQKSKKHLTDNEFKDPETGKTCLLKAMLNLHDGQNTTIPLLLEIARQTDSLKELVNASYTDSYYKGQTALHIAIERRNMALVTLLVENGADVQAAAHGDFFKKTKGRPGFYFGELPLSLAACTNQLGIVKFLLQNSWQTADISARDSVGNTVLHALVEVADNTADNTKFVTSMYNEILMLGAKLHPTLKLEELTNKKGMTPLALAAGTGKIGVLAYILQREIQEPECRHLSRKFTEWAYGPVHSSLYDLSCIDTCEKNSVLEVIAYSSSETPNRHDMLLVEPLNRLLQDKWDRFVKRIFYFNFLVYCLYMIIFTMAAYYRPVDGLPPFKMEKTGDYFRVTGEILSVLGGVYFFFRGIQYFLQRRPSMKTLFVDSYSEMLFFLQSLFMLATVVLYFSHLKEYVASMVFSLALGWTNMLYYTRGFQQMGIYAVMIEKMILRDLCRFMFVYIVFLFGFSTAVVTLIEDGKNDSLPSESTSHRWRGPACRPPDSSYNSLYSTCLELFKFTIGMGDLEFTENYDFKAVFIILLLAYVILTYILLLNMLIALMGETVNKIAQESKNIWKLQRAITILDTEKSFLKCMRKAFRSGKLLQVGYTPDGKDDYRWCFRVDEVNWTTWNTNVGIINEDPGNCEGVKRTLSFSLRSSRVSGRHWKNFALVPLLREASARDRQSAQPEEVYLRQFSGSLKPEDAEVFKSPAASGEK
Chain of P2X3 (Q3UR32 whole entry): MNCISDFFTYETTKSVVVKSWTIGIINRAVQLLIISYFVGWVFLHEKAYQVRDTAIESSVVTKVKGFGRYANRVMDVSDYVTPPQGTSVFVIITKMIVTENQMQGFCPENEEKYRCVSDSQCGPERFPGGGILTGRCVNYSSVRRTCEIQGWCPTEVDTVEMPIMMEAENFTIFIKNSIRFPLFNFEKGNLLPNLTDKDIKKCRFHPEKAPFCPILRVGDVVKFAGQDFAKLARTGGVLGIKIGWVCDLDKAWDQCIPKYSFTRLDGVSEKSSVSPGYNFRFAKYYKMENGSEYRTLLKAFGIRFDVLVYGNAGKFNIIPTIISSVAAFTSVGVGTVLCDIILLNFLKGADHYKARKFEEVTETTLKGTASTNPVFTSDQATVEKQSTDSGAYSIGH
Chain of TRPM8 (Q8R4D5 whole entry): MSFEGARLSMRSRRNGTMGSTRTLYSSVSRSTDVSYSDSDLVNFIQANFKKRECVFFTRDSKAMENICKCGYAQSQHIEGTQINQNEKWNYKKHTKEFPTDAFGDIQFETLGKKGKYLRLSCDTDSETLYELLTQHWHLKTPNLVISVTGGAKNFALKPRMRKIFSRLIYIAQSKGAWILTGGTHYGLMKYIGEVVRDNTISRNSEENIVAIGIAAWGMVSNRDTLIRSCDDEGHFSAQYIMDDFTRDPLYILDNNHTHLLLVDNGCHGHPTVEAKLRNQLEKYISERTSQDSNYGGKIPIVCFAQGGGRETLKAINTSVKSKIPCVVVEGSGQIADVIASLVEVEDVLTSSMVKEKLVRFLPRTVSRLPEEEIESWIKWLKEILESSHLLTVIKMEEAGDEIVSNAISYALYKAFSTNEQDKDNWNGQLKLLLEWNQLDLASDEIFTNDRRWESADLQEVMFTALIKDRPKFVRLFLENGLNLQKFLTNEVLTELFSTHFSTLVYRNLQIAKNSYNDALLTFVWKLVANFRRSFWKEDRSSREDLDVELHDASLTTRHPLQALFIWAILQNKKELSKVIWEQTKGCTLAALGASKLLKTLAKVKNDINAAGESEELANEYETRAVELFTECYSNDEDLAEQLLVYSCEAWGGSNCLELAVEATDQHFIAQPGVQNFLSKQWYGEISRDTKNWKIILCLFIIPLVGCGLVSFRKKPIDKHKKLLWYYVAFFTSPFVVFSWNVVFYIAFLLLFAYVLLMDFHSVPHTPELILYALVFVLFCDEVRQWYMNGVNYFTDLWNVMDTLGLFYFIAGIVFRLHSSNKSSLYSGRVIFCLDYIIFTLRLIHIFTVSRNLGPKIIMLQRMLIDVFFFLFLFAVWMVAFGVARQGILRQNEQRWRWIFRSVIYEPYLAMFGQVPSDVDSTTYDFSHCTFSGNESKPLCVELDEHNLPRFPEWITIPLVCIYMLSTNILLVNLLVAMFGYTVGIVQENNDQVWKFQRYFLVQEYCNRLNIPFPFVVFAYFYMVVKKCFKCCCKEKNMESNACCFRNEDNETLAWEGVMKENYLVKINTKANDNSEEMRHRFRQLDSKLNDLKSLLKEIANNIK
Chain of TRPV4 (Q9EPK8 whole entry): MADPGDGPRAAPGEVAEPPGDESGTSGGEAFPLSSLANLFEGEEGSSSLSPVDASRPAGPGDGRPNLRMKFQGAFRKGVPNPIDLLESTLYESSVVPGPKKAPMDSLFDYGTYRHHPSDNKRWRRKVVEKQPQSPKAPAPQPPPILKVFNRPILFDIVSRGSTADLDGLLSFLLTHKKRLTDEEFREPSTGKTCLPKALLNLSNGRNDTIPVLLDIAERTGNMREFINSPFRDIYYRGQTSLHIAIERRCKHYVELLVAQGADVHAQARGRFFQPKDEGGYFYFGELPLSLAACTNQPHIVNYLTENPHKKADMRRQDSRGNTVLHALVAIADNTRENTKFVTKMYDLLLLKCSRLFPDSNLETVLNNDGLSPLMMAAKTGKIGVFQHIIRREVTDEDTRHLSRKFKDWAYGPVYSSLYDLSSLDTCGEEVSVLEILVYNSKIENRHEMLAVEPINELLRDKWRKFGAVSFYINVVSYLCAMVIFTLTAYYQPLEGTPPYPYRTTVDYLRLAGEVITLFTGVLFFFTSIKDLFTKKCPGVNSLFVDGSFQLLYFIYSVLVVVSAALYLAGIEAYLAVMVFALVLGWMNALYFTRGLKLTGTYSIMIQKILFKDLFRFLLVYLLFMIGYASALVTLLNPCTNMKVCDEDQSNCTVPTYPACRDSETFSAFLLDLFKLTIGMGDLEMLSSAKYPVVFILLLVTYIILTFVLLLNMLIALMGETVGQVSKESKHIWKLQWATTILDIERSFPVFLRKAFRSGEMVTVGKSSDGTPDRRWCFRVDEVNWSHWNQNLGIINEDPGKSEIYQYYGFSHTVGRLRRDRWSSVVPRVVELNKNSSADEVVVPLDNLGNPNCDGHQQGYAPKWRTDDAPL

CC(C)(C)c1ccc(/C=C/C(=O)Nc2ccc3c(c2)OCCO3)cc1 [AMG 9810, (E)-3-(4-t-butylphenyl)-N-(2,3-dihydrobenzo[b][1,4]dioxin-6-yl)acrylamide, reference compound]
acute licking of superficial paw incision wound (TRPV1 [1]; topical 30 μM, mice): reduced

O=C(Nc1ccccc1Br)N[C@@H]1CCN(c2ccc(C(F)(F)F)cn2)C1 [SB705498]
symptomatic benefit for induced itch (TRPV1 [2]): not to be of symptomatic benefit

COc1cc(CNC(=O)CCCC/C=C/C(C)C)ccc1O [capsaicin]
injury-activated neurons responding to capsaicin [3]: 84% | injury-activated neurons responding to capsaicin ([3]; listed as Capsaicin): ~86%

QRFSR [opiorphin]
inhibition of calcium flux by TRPM8 agonist (TRPM8): did not inhibit | inhibition of calcium flux by TRPV4 agonist (TRPV4): did not inhibit | inhibition of calcium flux by TRPA1 agonist (TRPA1): did not inhibit | inhibition of proton-induced currents (TRPV1 [4]): strongly inhibited | inhibitory activity on pore turret mutants [5]: loss of opiorphin inhibitory activity | licking/biting response to superficial paw incision (TRPV1 [1]; topical 10 μM, 5 s, C57 mice, vs topical saline): eliminated | peak efficacy of capsaicin reduced to (rTRPV1; 100 nM opiorphin): ~50% | mode of inhibition versus capsaicin (rTRPV1; no rightward-shift of capsaicin curve): non-competitively | capsaicin-induced licking response (TRPV1 [6]): significantly reduced | thermal hypersensitivity after capsaicin injection (TRPV1 [7]): reduced | inhibition of calcium flux by P2X3 agonist (P2X3): did not inhibit | mechanical hypersensitivity after capsaicin injection (TRPV1 [8]): reduced | block of capsaicin-induced currents (TRPV1 [9]): effectively eliminated | effect on TRPV1 currents, external application (TRPV1 [9]): substantially reduced | effect on TRPV1 currents, internal application (TRPV1 [9]): no change in TRPV1 currents was detected | inhibition of capsaicin currents when applied into capsaicin application (TRPV1 [9]): inhibited capsaicin currents | ability to block capsaicin-evoked currents after pertussis toxin (TRPV1 [9]; PTX 1 μg/mL, 3 hours): remained intact | inhibition of capsaicin-induced currents (TRPV1 [10]): inhibited capsaicin-induced currents | inhibition at 1 µM (TRPV1 [11]): ~50% | inhibition of resiniferatoxin action (rat TRPV1; RTX 100 nM, HEK293 rTRPV1): inhibited the action | antagonism of capsaicin-evoked currents across voltages (rat TRPV1; capsaicin 1 μM, HEK293 rat TRPV1): antagonized capsaicin-evoked currents at all voltages tested

SMR3 peptide: SMR3 peptide (QRGPR; SEQ ID NO: 5) of the opiorphin family [reference compound]
block of capsaicin-induced currents by opiorphin family peptides (TRPV1 [9]): no such activity

sialorphin: rat peptide sialorphin (QHNPR, SEQ ID NO: 4) of the opiorphin family (listed as Rattus norvegicus) [reference compound]
block of capsaicin-induced currents by opiorphin family peptides (TRPV1 [9]): blocked capsaicin-induced currents
